Target: VEGFR2, unphosphorylated (Homo sapiens (Human), UniProt P35968)
Test: VEGFR ADP GLO Assay
Assay type: biochemical

VEGFR2, unphosphorylated, sequence (P35968 20-1356): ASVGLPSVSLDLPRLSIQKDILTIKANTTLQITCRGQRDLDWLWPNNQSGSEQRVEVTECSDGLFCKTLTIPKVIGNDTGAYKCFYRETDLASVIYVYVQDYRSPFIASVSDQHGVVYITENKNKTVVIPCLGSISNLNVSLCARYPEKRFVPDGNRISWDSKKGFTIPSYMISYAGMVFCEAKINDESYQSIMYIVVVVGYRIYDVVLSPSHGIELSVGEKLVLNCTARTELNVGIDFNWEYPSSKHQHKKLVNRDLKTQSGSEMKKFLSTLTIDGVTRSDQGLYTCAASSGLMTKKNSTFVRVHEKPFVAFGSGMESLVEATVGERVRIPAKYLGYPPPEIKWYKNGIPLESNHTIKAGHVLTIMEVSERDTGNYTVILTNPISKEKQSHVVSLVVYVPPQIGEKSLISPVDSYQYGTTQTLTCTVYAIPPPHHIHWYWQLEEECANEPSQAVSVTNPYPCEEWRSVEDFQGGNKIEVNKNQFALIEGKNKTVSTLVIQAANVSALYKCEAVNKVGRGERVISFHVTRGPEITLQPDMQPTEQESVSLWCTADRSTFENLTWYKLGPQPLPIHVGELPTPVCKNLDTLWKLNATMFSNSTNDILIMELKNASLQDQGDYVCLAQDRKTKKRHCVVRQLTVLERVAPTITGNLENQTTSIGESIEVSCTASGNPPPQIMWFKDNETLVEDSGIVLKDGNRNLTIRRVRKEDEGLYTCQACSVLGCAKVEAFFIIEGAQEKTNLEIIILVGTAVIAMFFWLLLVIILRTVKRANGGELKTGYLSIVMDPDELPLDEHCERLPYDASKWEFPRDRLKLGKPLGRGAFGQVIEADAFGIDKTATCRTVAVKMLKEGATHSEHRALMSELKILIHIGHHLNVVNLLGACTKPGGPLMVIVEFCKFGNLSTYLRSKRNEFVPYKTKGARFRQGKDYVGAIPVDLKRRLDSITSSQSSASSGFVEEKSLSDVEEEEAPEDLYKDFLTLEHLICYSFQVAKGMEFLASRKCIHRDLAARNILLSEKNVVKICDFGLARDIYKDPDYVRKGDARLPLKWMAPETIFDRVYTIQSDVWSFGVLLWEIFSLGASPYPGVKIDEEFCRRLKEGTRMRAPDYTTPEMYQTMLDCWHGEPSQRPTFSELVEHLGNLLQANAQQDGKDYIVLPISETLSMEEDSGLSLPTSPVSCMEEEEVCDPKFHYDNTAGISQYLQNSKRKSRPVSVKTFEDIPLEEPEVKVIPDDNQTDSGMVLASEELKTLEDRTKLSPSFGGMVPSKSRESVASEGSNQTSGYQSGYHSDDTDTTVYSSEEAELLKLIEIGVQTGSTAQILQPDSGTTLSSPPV

SMILES	IC50
Cc1ncc(C(=O)NCCN2CC3CCC2CC3)cc1NC(=O)c1cnn2cc(-c3ccncc3)sc12 [Example 148, N-(5-((2-(2-azabicyclo[2.2.2]octan-2-yl)ethyl)carbamoyl)-2-methylpyridin-3-yl)-2-(pyridin-4-yl)pyrazolo[5,1-b]thiazole-7-carboxamide]	> 7.5 µM
Cc1ncc(C(=O)NCCN2CC3CCC2CC3)cc1NC(=O)c1cnn2cc(-c3cn(C)nc3C)sc12 [Example 178, N-(5-((2-(2-azabicyclo[2.2.2]octan-2-yl)ethyl)carbamoyl)-2-methylpyridin-3-yl)-2-(1,3-dimethyl-1H-pyrazol-4-yl)pyrazolo[5,1-b]thiazole-7-carboxamide]	> 7.5 µM
Cc1ncc(NC(=O)CCN2CCCC2(C)C)cc1NC(=O)c1cnn2cc(-c3ccnn3C)sc12 [Example 11, N-(5-(3-(2,2-dimethylpyrrolidin-1-yl)propanamido)-2-methyl-pyridin-3-yl)-2-(1-methyl-1H-pyrazol-5-yl)pyrazolo[5,1-b]thiazole-7-carboxamide]	> 7.5 µM
Cc1ncc(C(=O)NCCN2CCCC2(C)C)cc1NC(=O)c1cnn2cc(-c3cn(C)cn3)sc12 [Example 163, N-(5-((2-(2,2-dimethylpyrrolidin-1-yl)ethyl)carbamoyl)-2-methylpyridin-3-yl)-2-(1-methyl-1H-imidazol-4-yl)pyrazolo[5,1-b]thiazole-7-carboxamide]	> 7.5 µM
Cc1ncc(C(=O)NCCN2CCCC2(C)C)cc1NC(=O)c1cnn2cc(-c3cnn(CCO)c3)sc12 [Example 140, N-(5-((2-(2,2-dimethylpyrrolidin-1-yl)ethyl)carbamoyl)-2-methylpyridin-3-yl)-2-(1-(2-hydroxyethyl)-1H-pyrazol-4-yl)pyrazolo[5,1-b]thiazole-7-carboxamide]	> 7.5 µM
Cc1ncc(C(=O)NCCN2CCC(F)(F)CC2)cc1NC(=O)c1cnn2cc(-c3ccncc3)sc12 [Example 154, N-(5-((2-(4,4-difluoropiperidin-1-yl)ethyl)carbamoyl)-2-methylpyridin-3-yl)-2-(pyridin-4-yl)pyrazolo[5,1-b]thiazole-7-carboxamide]	> 7.5 µM
Cc1ncc(NC(=O)NCC2CCN(C(C)C)CC2)cc1NC(=O)c1cnn2cc(-c3cnn(C)c3)sc12 [Example 109, N-(5-(3-((1-isopropylpiperidin-4-yl)methyl)ureido)-2-methylpyridin-3-yl)-2-(1-methyl-1H-pyrazol-4-yl)pyrazolo[5,1-b]thiazole-7-carboxamide]	> 7.5 µM
Cc1ncc(C(=O)NCCN2CCOCC23CCC3)cc1NC(=O)c1cnn2cc(-c3cnn(C)c3)sc12 [Example 117, N-(5-((2-(8-oxa-5-azaspiro[3.5]nonan-5-yl)ethyl)carbamoyl)-2-methylpyridin-3-yl)-2-(1-methyl-1H-pyrazol-4-yl)pyrazolo[5,1-b]thiazole-7-carboxamide]	> 7.5 µM
Cc1ncc(C(=O)NCCN2CCC(C)(C)C2)cc1NC(=O)c1cnn2cc(-c3ccncc3)sc12 [Example 156, N-(5-((2-(3,3-dimethylpyrrolidin-1-yl)ethyl)carbamoyl)-2-methylpyridin-3-yl)-2-(pyridin-4-yl)pyrazolo[5,1-b]thiazole-7-carboxamide]	> 7.5 µM
COCCn1cc(-c2cn3ncc(C(=O)Nc4cc(C(=O)NCCN5CCC(F)(F)CC5)cnc4C)c3s2)cn1 [Example 165, N-(5-((2-(4,4-difluoropiperidin-1-yl)ethyl)carbamoyl)-2-methylpyridin-3-yl)-2-(1-(2-methoxyethyl)-1H-pyrazol-4-yl)pyrazolo[5,1-b]thiazole-7-carboxamide]	> 7.5 µM

— US20240109917A1 (ACTELION PHARMACEUTICALS LTD, priority 2020, published 2024)
